# Data from ChEMBL document CHEMBL1151379, “Chemical Constituents of Hyptis suaveolens. Part I. Spectral and Biological Studies on a Triterpene Acid” (1981).
# Test system: Bipolaris oryzae
# Test: Antifungal activity against Helminthosporium oryzae at 1000 ppm
# Assay type: functional
smiles,measurement,value
C[C@H]1[C@H](C)CC[C@]2(C)CC[C@]3(C(=O)O)C(=CC[C@@H]4[C@@]5(C)CC[C@H](O)C(C)(C)[C@@H]5CC[C@]43C)[C@H]12,Activity,<10%
